Assays:
human TRPA1 [1] = target: T1, human TRPA1 (Homo sapiens (Human), UniProt O75762); experiment: IC50 determination on the human TRPA1 channel, calcium fluorescence (Hamamatsu FDSS plate reader); type: cell-based; settings: CHO cells expressing human TRPA1; block of cinnamaldehyde induced calcium influx; 20 minutes compound incubation; Hill coefficient fixed to 1.5; read-out: hTRPA1 AUC IC50
Protocol: IC50s (effective concentration) of compounds on the human TRPA1 channel were determined using a Hamamatsu FDSS fluorescence plate reader. CHO cells expressing human TRPA1 were plated into 384-well plates, incubated overnight at 37 C, and loaded with BD calcium indicator dye for 1 hr at 37° C. followed by 15 minutes. at room temperature. The assay buffer was Hank's Balanced Salt Solution (HBSS) containing 20 mM HEPES (pH readjusted to 7.4) along with 0.02% BSA.
Following dye load and plate cool down, compounds were added to the cells using the FDSS while monitoring fluorescence to determine whether any of the test compounds have TRPA1 agonist activity. Plates were then incubated with compound for 20 minutes at room temperature prior to adding agonist. Following this incubation, […] cinnamaldehyde was added to all wells of the plate and block of this cinnamaldehyde induced calcium influx was measured.
Fixing the Hill coefficient will generally reduce variability of the IC50 determination. The IC50s were examined by eye to make sure the MIN and MAX points were set correctly prior to validation of the results.

human TRPA1 [2] = target: T1, human TRPA1; experiment: FLIPR Tetra calcium influx assay, block of cinnamaldehyde-induced calcium influx in CHO cells expressing TRPA1 (human); type: cell-based; settings: 20 min compound incubation, 75 uM cinnamaldehyde (~EC80), Hill coefficient fixed to 1.5, read-out: hTRPA1 AUC IC50
Outline: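 CHO cells loaded with calcium dye, preincubated with compounds 20 min at room temperature in HBSS/20 mM HEPES pH 7.4 with 0.02% BSA. Channels activated by ~EC80 cinnamaldehyde (75 uM human, 45 uM rat); block of calcium influx read on FLIPR Tetra, IC50 fitted with fixed Hill coefficient.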

T1 sequence (O75762 whole entry): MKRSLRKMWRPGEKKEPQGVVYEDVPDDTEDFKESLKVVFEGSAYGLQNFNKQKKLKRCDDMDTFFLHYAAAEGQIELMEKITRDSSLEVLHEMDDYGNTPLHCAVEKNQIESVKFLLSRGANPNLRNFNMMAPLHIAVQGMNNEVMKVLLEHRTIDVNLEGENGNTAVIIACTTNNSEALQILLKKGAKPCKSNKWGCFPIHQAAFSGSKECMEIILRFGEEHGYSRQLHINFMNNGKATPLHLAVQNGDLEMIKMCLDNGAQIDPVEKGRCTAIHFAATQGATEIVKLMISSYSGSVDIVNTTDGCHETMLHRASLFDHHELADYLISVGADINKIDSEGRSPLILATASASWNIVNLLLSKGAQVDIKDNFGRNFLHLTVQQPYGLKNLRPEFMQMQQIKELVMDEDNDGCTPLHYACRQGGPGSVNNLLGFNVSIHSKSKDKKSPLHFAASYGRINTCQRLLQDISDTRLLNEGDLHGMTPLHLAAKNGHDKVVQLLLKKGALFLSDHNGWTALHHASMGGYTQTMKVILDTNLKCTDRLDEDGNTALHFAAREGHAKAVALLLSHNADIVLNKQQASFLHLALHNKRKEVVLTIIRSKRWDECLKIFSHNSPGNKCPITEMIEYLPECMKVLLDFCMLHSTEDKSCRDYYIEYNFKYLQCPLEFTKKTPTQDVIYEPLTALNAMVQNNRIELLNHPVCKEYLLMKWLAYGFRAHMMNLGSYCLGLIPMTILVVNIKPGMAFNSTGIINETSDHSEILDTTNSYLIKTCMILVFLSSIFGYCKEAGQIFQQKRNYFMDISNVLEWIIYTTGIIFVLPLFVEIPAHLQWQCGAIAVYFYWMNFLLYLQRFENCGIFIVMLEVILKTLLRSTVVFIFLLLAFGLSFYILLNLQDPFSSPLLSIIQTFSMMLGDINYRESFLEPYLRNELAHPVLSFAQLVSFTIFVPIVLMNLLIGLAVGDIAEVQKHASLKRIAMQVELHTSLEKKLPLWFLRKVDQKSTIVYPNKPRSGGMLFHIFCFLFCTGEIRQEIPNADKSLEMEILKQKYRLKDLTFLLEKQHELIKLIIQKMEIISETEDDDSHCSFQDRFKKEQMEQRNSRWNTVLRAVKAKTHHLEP

IC50 (human TRPA1 [1]) | IC50 (human TRPA1 [2]) | Structure (SMILES)
0.023 µM | – | O=C(NCc1cc(-c2ccc(C(F)(F)F)cc2)ncn1)[C@@H]1C[C@@H](F)CN1S(=O)(=O)c1cccc(F)c1 [Example 6, (2S,4R)-4-fluoro-1-(3-fluorophenylsulfonyl)-N-((6-(4-(trifluoromethyl)phenyl)pyrimidin-4-yl)methyl)pyrrolidine-2-carboxamide]
0.284 µM | – | O=C(NCc1cc(-c2ccc(C(F)(F)F)nc2)ncn1)[C@]1(CO)CCCN1S(=O)(=O)c1ccc(F)cc1 [Example 7, (R)-1-(4-fluorophenylsulfonyl)-2-(hydroxymethyl)-N-((6-(6-(trifluoromethyl)pyridin-3-yl)pyrimidin-4-yl)methyl)pyrrolidine-2-carboxamide]
0.03 µM | – | O=C(NCc1cc(C2=CCC(C(F)(F)F)CC2)ncn1)[C@@H]1C[C@@H](F)CN1S(=O)(=O)c1ccc(F)cc1 (stereo partly drawn) [Example 12, (2S,4R)-4-fluoro-1-(4-fluorophenylsulfonyl)-N-((6-(4-(trifluoromethyl)cyclohex-1-enyl)pyrimidin-4-yl)methyl)pyrrolidine-2-carboxamide]
0.229 µM | – | O=C(NCc1cc(-c2ccc(C(F)(F)F)cc2)ncn1)[C@@H]1C[C@@H](F)CN1S(=O)(=O)c1cncc(F)c1 [Example 28, (2S,4R)-4-fluoro-1-(5-fluoropyridin-3-ylsulfonyl)-N-((6-(4-(trifluoromethyl)phenyl)pyrimidin-4-yl)methyl)pyrrolidine-2-carboxamide]
0.087 µM | – | Cc1nc(CNC(=O)[C@@H]2C[C@@H](F)CN2S(=O)(=O)c2ccc(F)cc2)cc(-c2ccc(C(F)(F)F)nc2)n1 [Example 22, (2S,4R)-4-fluoro-1-(4-fluorophenylsulfonyl)-N-((2-methyl-6-(6-(trifluoromethyl)pyridin-3-yl)pyrimidin-4-yl)methyl)pyrrolidine-2-carboxamide]
0.023 µM | – | O=C(NCc1cc(-c2ccc(C(F)(F)F)cc2)ncn1)[C@@H]1[C@H]2CC[C@H](C2)N1S(=O)(=O)c1ccc(F)cc1 [Example 33, (1R,3S,4S)-2-(4-fluorophenylsulfonyl)-N-((6-(4-(trifluoromethyl)phenyl)pyrimidin-4-yl)methyl)-2-azabicyclo[2.2.1]heptane-3-carboxamide]
0.059 µM | – | C[C@@]1(C(=O)NCc2cc(-c3ccc(C(F)(F)F)nc3)ncn2)CCN1S(=O)(=O)c1ccc(F)cc1 [Example 2, (S)-1-(4-fluorophenylsulfonyl)-2-methyl-N-((6-(6-(trifluoromethyl)pyridin-3-yl)pyrimidin-4-yl)methyl)azetidine-2-carboxamide]
0.04 µM | – | O=C(NCc1cc(-c2ccc(C(F)(F)F)nc2)ncn1)[C@@H]1[C@H]2CC[C@H](C2)N1S(=O)(=O)c1ccc(F)cc1 [Example 34, (1R,3S,4S)-2-(4-fluorophenylsulfonyl)-N-((6-(6-(trifluoromethyl)pyridin-3-yl)pyrimidin-4-yl)methyl)-2-azabicyclo[2.2.1]heptane-3-carboxamide]
0.021 µM | – | O=C(NCc1cc(N2CCC(C(F)(F)F)CC2)c(F)cn1)[C@@H]1C[C@@H](F)CN1S(=O)(=O)c1ccc(F)cc1 [Example 37, (2S,4R)-4-fluoro-N-((5-fluoro-4-(4-(trifluoromethyl)piperidin-1-yl)pyridin-2-yl)methyl)-1-(4-fluorophenylsulfonyl)pyrrolidine-2-carboxamide]
0.252 µM | – | COC[C@@]1(C(=O)NCc2cc(-c3ccc(C(F)(F)F)nc3)ncn2)CCCN1S(=O)(=O)c1ccc(F)cc1 [Example 30, (R)-1-(4-fluorophenylsulfonyl)-2-(methoxymethyl)-N-((6-(6-(trifluoromethyl)pyridin-3-yl)pyrimidin-4-yl)methyl)pyrrolidine-2-carboxamide]
0.051 µM | – | C[C@@]1(C(=O)NCc2cc(-c3ccc(C(F)(F)F)nc3)ncn2)CCCN1S(=O)(=O)c1ccc(F)cc1 [Example 1, (S)-1-(4-fluorophenylsulfonyl)-2-methyl-N-((6-(6-(trifluoromethyl)pyridin-3-yl)pyrimidin-4-yl)methyl)pyrrolidine-2-carboxamide]
0.434 µM | – | O=C(NCc1cc(N2CCC(C(F)(F)F)CC2)ncn1)[C@@H]1C[C@@H](F)CN1S(=O)(=O)c1ccc(F)cc1 [Example 11, (2S,4R)-4-fluoro-1-(4-fluorophenylsulfonyl)-N-((6-(4-(trifluoromethyl)piperidin-1-yl)pyrimidin-4-yl)methyl)pyrrolidine-2-carboxamide]
0.015 µM | – | O=C(NCc1cc(-c2ccc(C(F)(F)F)cc2)ncn1)[C@@H]1C[C@@H](F)CN1S(=O)(=O)c1ccc(F)cc1 [Example 5, (2S,4R)-4-fluoro-1-(4-fluorophenylsulfonyl)-N-((6-(4-(trifluoromethyl)phenyl)pyrimidin-4-yl)methyl)pyrrolidine-2-carboxamide]
0.027 µM | – | O=C(NCc1cc(-c2ccc(C(F)(F)F)nc2)ncn1)[C@@H]1C[C@@H](F)CN1S(=O)(=O)c1ccc(Cl)s1 [Example 24, (2S,4R)-1-(5-chlorothiophen-2-ylsulfonyl)-4-fluoro-N-((6-(6-(trifluoromethyl)pyridin-3-yl)pyrimidin-4-yl)methyl)pyrrolidine-2-carboxamide]
0.867 µM | – | N#C[C@@]1(C(=O)NCc2cc(-c3ccc(C(F)(F)F)nc3)ncn2)CCCN1S(=O)(=O)c1ccc(F)cc1 [Example 32, (R)-2-cyano-1-(4-fluorophenylsulfonyl)-N-((6-(6-(trifluoromethyl)pyridin-3-yl)pyrimidin-4-yl)methyl)pyrrolidine-2-carboxamide]
0.007 µM | – | C[C@@]1(C(=O)NCc2cc(-c3ccc(C(F)(F)F)cc3)ncn2)C[C@@H](F)CN1S(=O)(=O)c1ccc(F)cc1 (single isomer, unassigned) [Example 20]
0.021 µM | – | O=C(NCc1cc(-c2ccc(OC(F)(F)F)cc2)ncn1)[C@@H]1C[C@@H](F)CN1S(=O)(=O)c1ccc(F)cc1 [Example 21, (2S,4R)-4-fluoro-1-(4-fluorophenylsulfonyl)-N-((6-(4-(trifluoromethoxy)phenyl)pyrimidin-4-yl)methyl)pyrrolidine-2-carboxamide]
0.268 µM | – | C[C@@]1(C(=O)NCc2cc(-c3ccc(C(F)(F)F)cn3)ncn2)CCCN1S(=O)(=O)c1ccc(F)cc1 [Example 14, (S)-1-(4-fluorophenylsulfonyl)-2-methyl-N-((6-(5-(trifluoromethyl)pyridin-2-yl)pyrimidin-4-yl)methyl)pyrrolidine-2-carboxamide]
0.126 µM | – | O=C(NCc1cc(-c2ccc(C(F)(F)F)nc2)ncn1)[C@@H]1C[C@@H](F)CN1S(=O)(=O)c1ccc(F)c(F)c1 [Example 25, (2S,4R)-1-(3,4-difluorophenylsulfonyl)-4-fluoro-N-((6-(6-(trifluoromethyl)pyridin-3-yl)pyrimidin-4-yl)methyl)pyrrolidine-2-carboxamide]
3 µM | – | O=C(NCc1cc(-c2ccc(C(F)(F)F)nc2)ncn1)[C@@H]1C[C@@H](F)CN1S(=O)(=O)c1cncc(F)c1 [Example 27, (2S,4R)-4-fluoro-1-(5-fluoropyridin-3-ylsulfonyl)-N-((6-(6-(trifluoromethyl)pyridin-3-yl)pyrimidin-4-yl)methyl)pyrrolidine-2-carboxamide]
– | 0.109 µM | O=C(NCc1cc(-c2ccc(C(F)(F)F)nc2)ncn1)[C@@H]1C[C@@H](F)CN1S(=O)(=O)c1ccc(F)c(F)c1 [Example 156, (2S,4R)-1-(3,4-difluorophenylsulfonyl)-4-fluoro-N-((6-(6-(trifluoromethyl)pyridin-3-yl)pyrimidin-4-yl)methyl)pyrrolidine-2-carboxamide]
– | 0.068 µM | COc1nn(-c2ccc(C(F)(F)F)nc2)cc1CNC(=O)[C@@H]1C[C@@H](F)CN1S(=O)(=O)c1ccc(F)cc1 [Example 153, (2S,4R)-4-fluoro-1-[(4-fluorobenzene)sulfonyl]-N-([3-methoxy-1-[6-(trifluoromethyl)pyridin-3-yl]-1H-pyrazol-4-yl]methyl)pyrrolidine-2-carboxamide]

Structure (SMILES) | IC50 (human TRPA1 [1]) | IC50 (human TRPA1 [2])
C[C@@]1(C(=O)NCc2cc(-c3ccc(C(F)(F)F)nc3)ncn2)C[C@@H](F)CN1S(=O)(=O)c1ccc(F)cc1 (single isomer, unassigned) [Example 19] | 0.016 µM | –
O=C(NCc1cc(-c2ccc(C(F)(F)F)nc2)ncn1)[C@@H]1C[C@H](F)CN1S(=O)(=O)c1ccc(F)cc1 [Example 4, (2S,4S)-4-fluoro-1-(4-fluorophenylsulfonyl)-N-((6-(6-(trifluoromethyl)pyridin-3-yl)pyrimidin-4-yl)methyl)pyrrolidine-2-carboxamide] | 0.819 µM | –
O=C(NCc1cc(-c2ccc(C(F)(F)F)nc2)ncn1)[C@@H]1C[C@@H](F)CN1S(=O)(=O)c1ccc(F)cc1 [Example 3, (2S,4R)-4-fluoro-1-(4-fluorophenylsulfonyl)-N-((6-(6-(trifluoromethyl)pyridin-3-yl)pyrimidin-4-yl)methyl)pyrrolidine-2-carboxamide] | 0.097 µM | –
COc1nc(CNC(=O)[C@@H]2C[C@@H](F)CN2S(=O)(=O)c2ccc(F)cc2)cc(-c2ccc(C(F)(F)F)nc2)n1 [Example 127, (2S,4R)-4-fluoro-1-[(4-fluorobenzene)sulfonyl]-N-([2-methoxy-6-[6-(trifluoromethyl)pyridin-3-yl]pyrimidin-4-yl]methyl)pyrrolidine-2-carboxamide] | – | 0.097 µM
